Results as given in patent publication US8404678B2, “Cytotoxic agents comprising new tomaymycin derivatives and their therapeutic use” (priority 2007, dated 2013).
pIC50: −log10 of the molar value. Read-outs that look alike come from different tables or passages of the source.

Legend:
Format in all cases: cell-based
[1] = system: HL60/ATCC cells; assay: In vitro viability assay (WST-8)
Procedure: (§1) Samples of free tomaymycin derivative or tomaymycin derivative conjugate are added to a 96-well flat bottomed tissue culture plate and titrated using serial dilutions ranging from 1×10^−12 M to 3×10^−7 M. Antigen positive tumor cells or antigen negative tumor cells are added to the wells in such a way that there are triplicate samples for each drug concentration for each cell line. […]
(§2) At the end of the incubation period, 20 μl of the tetrazolium reagent WST-8 (2-(2-methoxy-nitrophenyl)-3-(4-nitrophenyl)-5-(2,4-disulfophenyl)-2-tetrazolium, monosodium salt) is added to each well, and the plates are returned to the incubator for 2 hours. The absorbance in each well of the plates is then measured using the Molecular Devices plate reader at 450 nm. Surviving fraction of cells at each concentration of tomaymycin derivative or conjugate are plotted.
(§3) The cytotoxicity of the compounds and their specificity vs. the conjugates of the invention against MOLT-4, BJAB, HL60/QC, HL60/ATCC and Ramos cell lines were tested. Results are illustrated in FIGS. 1, 2, 3, 6 and 8.

[2] = system: Ramos cells; assay: In vitro viability assay (WST-8)
Procedure: as §1
[…] The absorbance in each well of the plates is then measured using the Molecular Devices plate reader at 450 nm. Surviving fraction of cells at each concentration of tomaymycin derivative or conjugate are plotted.
as §3

[3] = system: HL60/QC cells; assay: In vitro viability assay (WST-8); details: Homo sapiens
Procedure: (§4) Samples of free tomaymycin derivative or tomaymycin derivative conjugate are added to a 96-well flat bottomed tissue culture plate and titrated using serial dilutions ranging from 1×10^−12 M to 3×10^−7 M. Antigen positive tumor cells or antigen negative tumor cells are added to the wells in such a way that there are triplicate samples for each drug concentration for each cell line. The plates are incubated at 37° C. in an atmosphere of 5% CO2 for 4 days.
as §2, §3

[4] = system: MDA-MB-231 cells; assay: Continuous exposure clonogenic assay; details: Homo sapiens
Procedure: (§5) MDA-MB-231 cells were plated at 3000 cells per well in two separate 6-well plates; PC-3 and SK-MEL-28 cells were plated at 2000 cells per well in 2 separate plates. The test article(s) were added to give final concentrations of 0, 5×10^−13, 5×10^−12, 5×10^−11, 5×10^−10 and 5×10^−9 M per well (or similar dosage range) to each plate. For example, when cells are plated in 1 mL, and 1 mL of a 2× concentration of the test compound or conjugate is added to the appropriate wells to give the final desired concentration in 2 mls. The final solution of the test article was made in the same medium as the cell line; therefore, different dilutions of conjugate had to be made for each different cell line. The plates are placed in an incubator at 37° C. in 5% CO2. Cell growth is monitored and when cells in the “0” (control) wells had formed colonies but were not confluent, usually 7 days for these cell lines, the supernatant was removed by aspiration. The cells were washed once with PBS (Phosphate Buffer Solution) and the supernatant aspirated. To each well, 0.5 ml per well of a 0.1% crystal violet/10% formalin/PBS was added. The plates were incubated at room temperature for 10-15 minutes. The supernatant was aspirated and the wells washed 3 times with distilled H2O, and then air dried. Colonies in each well were counted and the number of colonies in each dosed well was divided by the number of colonies in the “0” well to give the surviving fraction. IC50 values were then calculated from the data.

[5] = system: PC-3 cells; assay: Continuous exposure clonogenic assay; details: Homo sapiens
Procedure: as §5

[6] = system: SK-MEL-28 cells; assay: Continuous exposure clonogenic assay; details: Homo sapiens
Procedure: as §5

[7] = system: various cell-lines; assay: In vitro cytotoxicity, cell line not named; details: FIG. 3; IGP08-OMe compared with IGP08
Procedure: as §4
as §2, with “Surviving fraction of cells at each concentration of tomaymycin derivative or conjugate are plotted.” left out
MDA-MB-231 cells were plated at 3000 cells per well in two separate 6-well plates; PC-3 and SK-MEL-28 cells were plated at 2000 cells per well in 2 separate plates. […] Cell growth is monitored and when cells in the “0” (control) wells had formed colonies but were not confluent, usually 7 days for these cell lines, the supernatant was removed by aspiration. […] Colonies in each well were counted and the number of colonies in each dosed well was divided by the number of colonies in the “0” well to give the surviving fraction. IC50 values were then calculated from the data.

[8] = Homo sapiens, HL-60, read-out: In vitro data (IC50) HL60/ATCC
[9] = Homo sapiens, Ramos, read-out: In vitro data (IC50) Ramos
[10] = HL-60, read-out: In vitro data (IC50) HL60/QC
[11] = MDA-MB-231, read-out: In vitro data (IC50) MDA-MB-231
[12] = PC-3, read-out: In vitro data (IC50) PC-3
[13] = SK-MEL-28, read-out: In vitro data (IC50) SK-MEL-28

| Compound | pIC50 [1, 8] | pIC50 [2, 9] | pIC50 [4, 11] | pIC50 [5, 12] | pIC50 [6, 13] | further results |
| --- | --- | --- | --- | --- | --- | --- |
| C=C1C[C@H]2C=Nc3cc(OCc4cc(COc5cc6c(cc5OC)C(=O)N5C/C(=C/C)C[C@H]5C=N6)cc(OCC(=O)OC)c4)c(OC)cc3C(=O)N2C1 | 10.92 | 11.85 |  |  |  |  |
| C/C=C1\C[C@H]2C=Nc3cc(OCc4cc(COc5cc6c(cc5OC)C(=O)N5C/C(=C/C)C[C@H]5C=N6)cc(OCCCC(=O)O)c4)c(OC)cc3C(=O)N2C1 | 8.70 | 9.24 |  |  |  | pIC50 [3, 10]: 8.92 |
| C/C=C1\C[C@H]2C=Nc3cc(OCc4cc(C#CCCCC(=O)OC)cc(COc5cc6c(cc5OC)C(=O)N5C/C(=C/C)C[C@H]5C=N6)c4)c(OC)cc3C(=O)N2C1 | 11.66 | 11.92 | 10.92 | 10.57 | 10.82 |  |
| C/C=C1\C[C@H]2C=Nc3cc(OCc4cc(COc5cc6c(cc5OC)C(=O)N5C/C(=C/C)C[C@H]5C=N6)cc(OCCOCCOCCOCCC(=O)OC)c4)c(OC)cc3C(=O)N2C1 | 10.92 |  | 10.80 | 11.13 | 11.01 |  |
| C/C=C1\C[C@H]2C=Nc3cc(OCc4cc(OCCOCCOCCOCCC(=O)OC)cc(COc5cc6c(cc5OC)C(=O)N5C/C(=C/C)C[C@H]5C=N6)n4)c(OC)cc3C(=O)N2C1 |  |  | 11.10 | 9.30 | 10.15 |  |
| C/C=C1\C[C@H]2C=Nc3cc(OCc4cc(OCCCC(=O)OC)cc(COc5cc6c(cc5OC)C(=O)N5C/C(=C/C)C[C@H]5C=N6)n4)c(OC)cc3C(=O)N2C1 |  |  | 11.77 | 10.96 | 11.06 |  |
| C/C=C1\C[C@H]2C=Nc3cc(OCc4cc(COc5cc6c(cc5OC)C(=O)N5C/C(=C/C)C[C@H]5C=N6)cc(OCCN(C)C(=O)CCC(=O)OC)c4)c(OC)cc3C(=O)N2C1 |  |  | 11.05 | 9.30 | 10.05 |  |
| C=C1C[C@H]2C=Nc3cc(OCc4cc(CCC(=O)OC)cc(COc5cc6c(cc5OC)C(=O)N5CC(=C)C[C@H]5C=N6)c4)c(OC)cc3C(=O)N2C1 [compound 8] |  |  |  |  |  | pIC50 ([3]; HL-60, unconjugated tomaymicine derivatives, HL60/QC, read-out: In vitro data (IC50) HL60/QC): 11.96; In vitro cytotoxicity potency, ester versus acid [7]: higher potency; pIC50 ([1]; Homo sapiens, HL-60, unconjugated tomaymicine derivatives, HL60/ATCC, read-out: In vitro data (IC50) HL60/ATCC): 11.40; pIC50 ([2]; Homo sapiens, unconjugated tomaymicine derivatives, Ramos, read-out: In vitro data (IC50) Ramos): 11.10; pIC50 ([4]; unconjugated tomaymicine derivatives, MDA-MB-231, read-out: In vitro data (IC50) MDA-MB-231): 10.77; pIC50 ([5]; unconjugated tomaymicine derivatives, PC-3, read-out: In vitro data (IC50) PC-3): 10.57; pIC50 ([6]; unconjugated tomaymicine derivatives, SK-MEL-28, read-out: In vitro data (IC50) SK-MEL-28): 11.00 |
| C=C1C[C@H]2C=Nc3cc(OCc4cc(CCC(=O)O)cc(COc5cc6c(cc5OC)C(=O)N5CC(=C)C[C@H]5C=N6)c4)c(OC)cc3C(=O)N2C1 [compound 9, 4-(3,5-Bis-[(S)-2-methylidene-7-methoxy-1,2,3,11a-tetrahydro-pyrrolo[2,1c][1,4]benzodiazepin-5-one-8-yloxymethyl]-phenyl)-propanoic acid] | 8.59 | 8.57 |  |  |  | pIC50 [3, 10]: 8.46 |
| huMy9-6—3-(2-{2-[2-(3,5-Bis-[(S)-2-eth-(E)-ylidene-7-methoxy-1,2,3,11a-tetrahydro-pyrrolo[2,1c][1,4]benzodiazepin-5-one-8-yloxymethyl]-phenoxy)-ethoxy]-ethoxy}-ethoxy)-propionyl conjugate [ex. 14] |  |  |  |  |  | pIC50 ([1]; conjugate, HL60/ATCC (Ag+) @ 5000 cells/well, 7 day exposure, WST 2 hours, FIG. 23, read-out: ~IC50 HL60/ATCC cells): ~10.64; pIC50 ([2]; conjugate, Ramos (Ag−) @ 2000 cells/well, 5 day exposure, WST 4.5 hours, FIG. 23, read-out: ~IC50 Ramos cells): > 8.00 |
